Measurements from article PMC4984800, “A first in man, dose-finding study of the mTORC1/mTORC2 inhibitor OSI-027 in patients with advanced solid malignancies” (British Journal of Cancer, 2016).

Assay: First-in-human trial: dose-limiting toxicities, adverse events, tolerability
Type: in vivo
Source text: Three different schedules of administration were investigated during the dose-escalation phase: once daily for three consecutive days every week (Schedule 1 (S1)), once weekly (Schedule 2 (S2)) and continuous once daily (Schedule 3 (S3)). The primary objective of the study was to determine MTD and recommend a dose and schedule of OSI-027 for phase 2 trials. Secondary objectives included tolerability, safety and pharmacokinetics profile, assessment of pharmacodynamics and preliminary antitumour activity.
Dose escalation was pursued independently for each schedule following a 3+3 design. Escalation was permitted if <33% patients on a dose level experienced dose-limiting toxicities (DLT), defined as any non-haematological adverse event grade ⩾3 (NCI-CTCAE v3) related with the study drug occurring during the first cycle of treatment (21 days), with the exception of […] fatigue, nausea, vomiting and/or diarrhoea. In addition, absolute reduction ⩾15% on LVEF was also considered DLT. MTD was defined as the immediately lower dose level to the one where ⩾33% of patients experienced DLT.
Adverse events and concomitant medications were recorded throughout the trial participation.
Guidelines for dose modifications were implemented; drug administration was halted and/or dose was reduced for creatinine increase grade ⩾2 and/or if absolute values of LVEF fell ⩾15% from baseline. Permanent treatment discontinuation was mandated for LVEF drops ⩾20%.

## COc1cccc2cc(-c3nc([C@H]4CC[C@H](C(=O)O)CC4)n4ncnc(N)c34)[nH]c12 [OSI-027]
S1, QD three consecutive days per week
  highest potentially feasible dose: 120 mg
S2, once weekly, 10 to 240 mg QWK tested
  MTD: Dose escalation was discontinued before a formal MTD was reached
S3, continuous once daily
  MTD: 30 mg QD
human, in vivo
  Maximum creatinine on treatment CTCAE grade 4, patients: 0
  creatinine rise (increase of at least one grade in CTCAE v3), patients: 26%
  cutaneous toxicities, mainly grade 1–2 macular or maculo-papular rash, patients: 25%
  patients who discontinued drug permanently due to drug-related adverse events: 8.1%
  patients with a grade ⩾3 drug-related event: 17%
human, in vivo, 3 weeks
  patients with a drop in the LVEF: 38%
human, in vivo, 12 days
  Dose limiting toxicity: Elevated serum creatinine (G2)
human, in vivo, 13 days
  Dose limiting toxicity: Fatigue (G3)
human, in vivo, 14 days
  Dose limiting toxicity: Bone pain (G3)
human, in vivo, 15 days
  Dose limiting toxicity: Stress-induced cardiomyopathy (G3)
human, in vivo, 21 days
  DLT grade 2 decreased LVEF: 1 events
  DLT grade 3 bone pain: 1 events
  DLT grade 3 cardiomyopathy: 1 events
  DLT grade 3 fatigue: 4 events
  DLT grade 3 hyperglycaemia: 1 events
  DLT grade 3 maculo-papular rash: 1 events
  DLT grade ⩾2 creatinine rise: 2 events
  Dose limiting toxicity: Urticaria (G3)
  patients with dose-limiting toxicities (DLT): 11 patients
human, in vivo, 22 days
  Dose limiting toxicity: Decreased LVEF (G2)
In vivo
  patients needing a dose reduction: over half of the patients
Including post-treatment 30 days follow-up, none judged drug-related
  individuals who died during study participation: eight
